Measurements as given in patent publication US10556929B2, “Cytotoxic T lymphocyte inducing immunogens for prevention treatment and diagnosis of dengue virus infection” (Emergex Vaccines Holdings Limited, priority 2011, dated 2020).

What was measured:
Assay type in all cases: cell-based, human
[1] = tested on: HepG2 cells infected with DV1-4 Thai isolates; assay: IFN-γ ELISpot, CTL vs HepG2 cells infected with DV1-4 Thai isolates; details: HepG2 infected with DV1-4 Thai isolates, FIG. 4C-F
Experimental: (§1) Dengue virus serotype 2 (DV2) (strain-16681), as well as DV type 3 (DV3) (strain-16562), were propagated in Vero cells and collected at 4 days post infection (dpi). Titer was determined using a plaque assay in Vero cells. Thai isolates of all four DV serotypes were propagated. All infections were carried out at five MOI for lhr, after which, virus was removed and cells were incubated for additional 48-72 hrs.
(§2) Heparinized blood from healthy HLA-A2+ donors was purchased from Research Blood Components, LLC (Brighton, Mass.). Peripheral blood mononuclear cells (PBMC) were purified using differential centrifugation following standard methods. PBMC were used to generate peptide specific CTL as described previously (James S. Testa, et al. J Infect Dis 205(4): 647-655. (2012)).
(§3) Antigen stimulated interferon-γ (IFN-γ) release as a measure of CTL activation was assayed using an ELISPOT assay kit (BD-Pharmingen, San Jose, Calif.) according to the manufacturer's instructions. Results are presented as the number of interferon-γ producing cells per 1E6 PBMCs. Each assay was performed with PBMC from at least three different healthy HLA-A2+ donors. Error bars represent SEM of experimental replicates.
(§4) We tested CTLs generated against the 4 epitopes using targets infected with all four DV serotypes. We infected HepG2 cells (FIG. 4A) or JY cells (FIG. 4B) with DV1-4 Thai isolates and verified protein expression. […] In addition to HepG2 cells, we also tested professional APC JY cells, as targets.

[2] = tested on: T2 cells loaded with the corresponding synthetic peptide; assay: IFN-γ ELISpot, CTL vs peptide-pulsed T2 cells; details: CTL from HLA-A2+ healthy donor PBMC generated with synthetic peptide, overnight ELISpot, FIG. 3A-D
Experimental: as §2, §3
In order to characterize the functionality of the identified DV epitopes, we generated cytotoxic T cells from HLA-A2+ healthy donors using synthetic peptides corresponding to the identified epitopes. The cultures were tested in overnight ELISpot assays to measure IFNγ release from activated CTLs. […] Next, to confirm CTL activation against DV-infected targets, JY and HepG2 cells were infected with both DV2 and DV3 virus and used as targets in CTL ELISpot assays. […] In addition, K562 cells, a known NK cell target, were used as targets to measure non-specific IFNγ secretion.

[3] = tested on: JY cells infected with DV1-4 Thai isolates; assay: IFN-γ ELISpot, CTL vs JY cells infected with DV1-4 Thai isolates; details: JY infected with DV1-4 Thai isolates, FIG. 4G-J
Experimental: as §1, §2, §3, §4

[4] = tested on: JY and HepG2 cells infected with DV2 and DV3 virus; assay: IFN-γ ELISpot, CTL vs DV2/DV3-infected JY and HepG2 cells; details: FIG. 3E-F
Experimental: as §1, §2, §3
In order to characterize the functionality of the identified DV epitopes, we generated cytotoxic T cells from HLA-A2+ healthy donors using synthetic peptides corresponding to the identified epitopes. […]

Sequence	activation of epitope-specific CTL against infected HepG2 targets [1]	recognition of peptide-loaded targets by peptide-specific CTL (IFNγ release) [2]	DV serotypes of infected targets recognized by peptide-specific CTL [3]	activation of peptide-specific CTL by infected JY targets [3]	CTL activation (IFNγ secretion) against DV-infected targets [4]
KLAEAIFKL (listed as Homo sapiens) [P1-KLA]	activated against all four serotypes, although not to the same degree	recognize T2 cells loaded with the corresponding synthetic peptide	recognized only DV2-infected targets	most infected targets activate peptide-specific CTL	
NIQTAINQV (listed as Homo sapiens) [P4-NIQ]	activated against all four serotypes, although not to the same degree	recognize T2 cells loaded with the corresponding synthetic peptide		most infected targets activate peptide-specific CTL	
TITEEIAVQ (listed as Homo sapiens) [P3-TIT]	activated against all four serotypes, although not to the same degree	recognize T2 cells loaded with the corresponding synthetic peptide		most infected targets activate peptide-specific CTL	all DV-infected cells activated CTL to secrete IFNγ
VTLLCLIPTV (listed as Homo sapiens) [P2-VTL]	activated against all four serotypes, although not to the same degree	recognize T2 cells loaded with the corresponding synthetic peptide	recognized only DV2-infected targets	most infected targets activate peptide-specific CTL	all DV-infected cells activated CTL to secrete IFNγ
